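Following 48 hours of exposure in 96-well plates, responses at five concentrations were used to interpolate endpoints linearly. Here, GI50 denotes the concentration required for 50% inhibition of growth. TGI: total growth inhibition.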
Experiments:
Assay in all cases: NCI-60 cell line screen, 48 h
786-0 renal = tested on: 786-0 renal
HL-60(TB) leukemia = tested on: HL-60(TB) leukemia
MDA-MB-435 = tested on: MDA-MB-435
LOX IMVI melanoma = tested on: LOX IMVI melanoma
PC-3 prostate = tested on: PC-3 prostate
HS 578T breast = tested on: HS 578T breast
ACHN renal = tested on: ACHN renal
UO-31 renal = tested on: UO-31 renal
SF-539 CNS = tested on: SF-539 CNS
HCT-116 colon = tested on: HCT-116 colon

SMILES	TGI (786-0 renal)	TGI (HL-60(TB) leukemia)	TGI (MDA-MB-435)	TGI (LOX IMVI melanoma)	TGI (PC-3 prostate)	TGI (HS 578T breast)	TGI (ACHN renal)	TGI (UO-31 renal)	TGI (SF-539 CNS)	TGI (HCT-116 colon)	GI50 (786-0 renal)	GI50 (HL-60(TB) leukemia)	GI50 (MDA-MB-435)	GI50 (LOX IMVI melanoma)	GI50 (PC-3 prostate)	GI50 (HS 578T breast)	GI50 (ACHN renal)	GI50 (UO-31 renal)	GI50 (SF-539 CNS)	GI50 (HCT-116 colon)
COC(=O)C1=C(C)NC(C)=C(C(=O)OC)C1c1cccc(/[N+]([O-])=C/c2ccccc2)c1	31.5 µM	71 µM	35.7 µM	> 100 µM	> 100 µM	> 100 µM	31.6 µM	> 100 µM	> 100 µM	30.4 µM	–	–	–	–	–	–	–	–	–	–
CC(=O)OC1CC2(C)C(=CC1C1SCCS1)CCC1C2CCC2(C)C(OC(C)=O)CCC12 (centres undefined)	> 100 µM	> 100 µM	> 100 µM	> 100 µM	> 100 µM	49.9 µM	> 100 µM	> 100 µM	> 100 µM	> 100 µM	–	–	–	–	–	–	–	–	–	–
CCC[CH2][Sn]1([CH2]CCC)[O]C(=O)c2cccc([N+](=O)[O-])c2C(=O)[O]1	1.99 µM	1.35 µM	1.91 µM	0.7 µM	2.45 µM	3.73 µM	1.27 µM	1.41 µM	1.73 µM	1.62 µM	0.724 µM	0.206 µM	0.594 µM	0.259 µM	1.06 µM	0.907 µM	0.348 µM	0.329 µM	0.497 µM	0.435 µM
COC(=O)CC[C@@H](C)[C@H]1CC[C@H]2[C@@H]3CC[C@@H]4C[C@H](O)CC[C@]4(C)[C@H]3CC[C@]12C	33.8 µM	35.5 µM	33 µM	35.7 µM	32.2 µM	55.8 µM	39.8 µM	34.9 µM	36 µM	31.8 µM	–	–	–	–	–	–	–	–	–	–
Clc1ccc2c(NC3CCC(N4CCCCC4)CC3)ccnc2c1 (centres undefined)	41.7 µM	43.5 µM	28.5 µM	33 µM	> 100 µM	56.4 µM	> 100 µM	28 µM	36.2 µM	44.7 µM	–	–	–	–	–	–	–	–	–	–
CCN1CCN(c2ccc(NC(=O)Nc3nc4ccc(-c5ccccc5OC)cc4s3)cc2)CC1	3.28 µM	3.58 µM	3.14 µM	3.17 µM	3.47 µM	4.45 µM	3.11 µM	2.92 µM	3.03 µM	3.01 µM	1.8 µM	1.73 µM	1.71 µM	1.7 µM	1.79 µM	1.95 µM	1.74 µM	1.52 µM	1.6 µM	1.58 µM
O=C1OC(OC/C(Br)=C(\Br)COC2OC(=O)C(Cl)=C2Cl)C(Cl)=C1Cl (centres undefined)	6.4 µM	1.43 µM	21.4 µM	8.29 µM	27.8 µM	31.7 µM	13.7 µM	8.12 µM	21.9 µM	4.56 µM	–	–	–	–	–	–	–	–	–	–
Cn1nc(C(F)(F)F)cc1-c1cc(Cl)c(OCc2ccc(Cl)cc2)c(-c2ccc(Cl)c(C(F)(F)F)c2)c1O	2.63 µM	2.49 µM	4.18 µM	3.12 µM	5.09 µM	2.92 µM	4.6 µM	3.51 µM	3.26 µM	1.86 µM	1.07 µM	1.12 µM	1.42 µM	1.16 µM	0.709 µM	0.975 µM	1.39 µM	1.12 µM	1.07 µM	0.691 µM
CC12CCC(C1)C(C)(C)C2OC(=O)c1ccccc1N (centres undefined)	33.5 µM	28.6 µM	31.2 µM	33.8 µM	27.3 µM	31.5 µM	33 µM	30.8 µM	33.7 µM	26.6 µM	–	–	–	–	–	–	–	–	–	–
Cc1[nH]nc(C(F)(F)F)c1Cc1sc2c(c1C(=O)N1C[C@](C)(O)CO1)c(=O)n(C)c(=O)n2C(C)C	> 100 µM	> 100 µM	> 100 µM	> 100 µM	> 100 µM	> 100 µM	> 100 µM	> 100 µM	> 100 µM	> 100 µM	> 100 µM	> 100 µM	> 100 µM	> 100 µM	> 100 µM	> 100 µM	> 100 µM	> 100 µM	> 100 µM	> 100 µM
CCC(=O)OCOc1ccc(/C=C2\CCC(CN(C)C)C2=O)cc1 (centres undefined)	6.2 µM	5.51 µM	10.6 µM	4.1 µM	27.6 µM	> 79 µM	20.4 µM	19 µM	17.3 µM	18.2 µM	–	–	–	–	–	–	–	–	–	–
Cc1cc(OCc2ccc(C(F)(F)F)cc2)c2c(c1)C(=O)C=C(NCCN1CCCC1)C2=O	2.99 µM	4.08 µM	3.02 µM	3.55 µM	19.5 µM	5.23 µM	4.08 µM	4.93 µM	3.24 µM	3.9 µM	1.6 µM	1.71 µM	1.62 µM	1.92 µM	5.36 µM	2.02 µM	1.97 µM	2.19 µM	1.68 µM	1.85 µM
O=C1C=CC2C3C(=O)N(c4ccccc4)C(=O)C3C1N2Cc1ccccc1 (centres undefined)	3.62 µM	8.79 µM	8.05 µM	3.13 µM	13 µM	13.9 µM	7.61 µM	6.79 µM	3.81 µM	3.27 µM	1.69 µM	1.17 µM	2.72 µM	1.61 µM	4.67 µM	–	3.36 µM	3.42 µM	1.66 µM	1.56 µM
Oc1c(C(c2ccc(F)cc2)N2CCCCC2)ccc2cncnc12 (centres undefined)	> 100 µM	6.22 µM	> 100 µM	> 100 µM	> 100 µM	> 100 µM	> 100 µM	6.62 µM	> 81.2 µM	> 100 µM	1.69 µM	1.14 µM	0.412 µM	0.432 µM	0.426 µM	0.432 µM	1.24 µM	0.834 µM	0.388 µM	0.364 µM
COC(=O)C1=C(C)NC(=S)NC1c1ccc(N(CCCl)CCCl)cc1Cl (centres undefined)	> 100 µM	> 100 µM	37.4 µM	> 100 µM	> 82.8 µM	> 100 µM	> 75.9 µM	> 80.7 µM	> 100 µM	> 100 µM	–	–	–	–	–	–	–	–	–	–
Cc1ccc2ccccc2c1CSc1nc(N)nc2c1ncn2CC(C)C	> 100 µM	> 100 µM	> 84.4 µM	> 100 µM	> 89.9 µM	> 100 µM	> 100 µM	13.2 µM	> 44.8 µM	> 100 µM	–	–	–	–	–	–	–	–	–	–

— PubChem BioAssay (NCI)
